# Experimental data: EP3628659A1, “SELENOESTER-CONTAINING COMPOUNDS FOR USE IN THE TREATMENT OF MICROBIAL INFECTIONS OR COLORECTAL CANCER” (Consejo Superior De Investigaciones Científicas, priority 2018, dated 2020)
# How the values were obtained:
# Type in all cases: cell-based
# Settings in all cases: MIC class
# [1] = system: Staphylococcus aureus 25923 ATCC; test: MIC determination (CLSI), S. aureus 25923 ATCC
# Experimental: (§1) The effects exerted by different concentrations of the compounds on bacterial growth in Staphylococcus aureus 25923 ATCC, Staphylococcus aureus multidrug resistant 272123 clinical isolate (MRSA), Escherichia coli AG100 or Escherichia coli AG100 A were tested in 96-well plates. The MIC of selenocompounds was determined according to Clinical and Laboratory Standard Institute (CLSI) guidelines. The solvent used (DMSO) had no antibacterial effect. Alternatively, the MICs of oxacillin of the compounds in MRSA HEMSA 5 were determined by a broth microdilution method in cation-adjusted Mueller-Hinton Broth (MHB II) according to the recommendations of the CLSI. Results were recorded after a 20- or 24-hour incubation at 37°C.
# Escherichia coli AG100 A = test: MIC determination (CLSI), E. coli AG100 A
# Experimental: as §1
# [2] = system: Staphylococcus aureus multidrug resistant 272123 clinical isolate (MRSA)
# Experimental: as §1
Compound,Antibacterial activity Against S. aureus 25923 ATCC [1],Antibacterial activity Against E. coli AG100 A (Escherichia coli AG100 A),Antibacterial activity Against S. aureus MRSA 272123 [2]
"N#CC[Se]C(=O)c1ccc(C(=O)[Se]CC#N)cc1 [Compound 18, Se,Se-bis-(cyanomethyl) benzene-1,4-bis-(carboselenoate)]",*** (Potent antibacterial compounds: 1 µM < MIC ≤ 10 µM),** (Moderate antibacterial compounds: 10 µM < MIC ≤ 50 µM),** (Moderate antibacterial compounds: 10 µM < MIC ≤ 50 µM)
"N#CC[Se]C(=O)c1cccc(C(=O)[Se]CC#N)c1 [Compound 19, Se,Se-bis-(cyanomethyl)benzene-1,3-bis-(carboselenoate)]",*** (Potent antibacterial compounds: 1 µM < MIC ≤ 10 µM),NA (Not antibacterial compounds: MIC ≥ 100 µM),** (Moderate antibacterial compounds: 10 µM < MIC ≤ 50 µM)
"N#CC[Se]C(=O)c1cc(C(=O)[Se]CC#N)cc(C(=O)[Se]CC#N)c1 [Compound 20, Se,Se,Se-tris-(cyanomethyl) benzene-1,3,5-tris-(carboxyselenoate)]",–,NA (Not antibacterial compounds: MIC ≥ 100 µM),–
"CC(=O)C[Se]C(=O)c1ccc(C(=O)[Se]CC(C)=O)cc1 [Compound 22, Se,Se-bis-(2-oxopropyl) benzene-1,4-bis-(carboselenoate)]",**** (Very potent antibacterial compounds: MIC ≤ 1 µM),** (Moderate antibacterial compounds: 10 µM < MIC ≤ 50 µM),*** (Potent antibacterial compounds: 1 µM < MIC ≤ 10 µM)
"CC(=O)C[Se]C(=O)c1cccc(C(=O)[Se]CC(C)=O)c1 [Compound 23, Se,Se-bis-(2-oxopropyl) benzene-1,3-bis-(carboselenoate)]",**** (Very potent antibacterial compounds: MIC ≤ 1 µM),** (Moderate antibacterial compounds: 10 µM < MIC ≤ 50 µM),*** (Potent antibacterial compounds: 1 µM < MIC ≤ 10 µM)
"CC(=O)C[Se]C(=O)c1cc(C(=O)[Se]CC(C)=O)cc(C(=O)[Se]CC(C)=O)c1 [Compound 24, Se,Se,Se-tris-(2-oxopropyl) benzene-1,3,5-tris-(carboxyselenoate)]",**** (Very potent antibacterial compounds: MIC ≤ 1 µM),** (Moderate antibacterial compounds: 10 µM < MIC ≤ 50 µM),**** (Very potent antibacterial compounds: MIC ≤ 1 µM)
